Data taken from patent EP2508526A1, “Spiroalkene carboxamide derivatives and their use as chemokine receptor modulators” (Ares Trading SA, priority 2011, dated 2012).

Columns and labels:
hCCR2b [1] = target: T1, hCCR2b (Homo sapiens, UniProt P41597); test: CCR2 binding assay ([125I]MCP-1, SPA, CHO cell membranes); parameters: expressed in transfected cells; host or cells: CHO cells (membrane preparation); details: membranes from CHO cells expressing hCCR2b, 50 pM [125I]MCP-1; read-out: Binding hCCR2 (Ki)
T1 sequence (P41597 1-360 isoform P41597-2): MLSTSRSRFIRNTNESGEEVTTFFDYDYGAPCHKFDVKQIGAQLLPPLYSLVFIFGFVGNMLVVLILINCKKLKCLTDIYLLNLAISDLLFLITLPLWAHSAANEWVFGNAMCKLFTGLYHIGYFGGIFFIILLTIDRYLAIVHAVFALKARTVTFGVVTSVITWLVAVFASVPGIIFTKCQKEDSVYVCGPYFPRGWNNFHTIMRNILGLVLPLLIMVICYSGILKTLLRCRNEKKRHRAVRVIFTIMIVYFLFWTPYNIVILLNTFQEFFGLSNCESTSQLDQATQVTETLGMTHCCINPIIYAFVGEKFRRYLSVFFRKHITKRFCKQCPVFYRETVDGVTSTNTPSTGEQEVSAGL
Outline: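 CHO membranes expressing hCCR2b (1–5 µg/well) with 50 pM [125I]MCP-1 and WGA SPA beads in 50 mM HEPES pH 7.4, 5 mM MgCl2, 1 mM CaCl2, 0.1% BSA, 1% DMSO; 90 min RT with agitation. Bound counts on scintillation counter; nonspecific defined by 1000-fold excess unlabeled compound.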

hCCR2b [2] = target: T1, hCCR2b; test: Chemotaxis of L1.2-hCCR2b cells towards MCP-1 P8A; format: cell-based; parameters: expressed in transfected cells; host or cells: L1.2 cells (murine pre-B cell line); details: MCP-1 P8A at EC80, 4-hours incubation
Excerpt: L1.2 cells, a murine pre-LB cellline, were transfected with the human CCR2b receptor for use in the transmigration of L1.2 hCCR2b on the chemotaxis system: ChemotX® provided by Neuroprobes (8µm pore size). Monocyte Chemoattractant Protein-1 (MCP-1) stimulation leads to activate the CCR2 receptor and inititates a cascade of events including chemotaxis. MCP-1 ligand will be replaced by MCP-1 P8A protein with genetic modifications to prevent the oligomerization of the protein. L1.2-hCCR2b are incubated in white RPMI 1640, 5% v/v Heat inactivated FCS, 1% v/v penicillin-streptomycin supplemented with 5 mM Butyrate overnight to enhance receptor expression level at the cell surface. L1.2-hCCR2b cells and compounds in DMSO (1% final) are preincubated 15 min in chemotaxis medium and placed in the Upper Chamber of the chemotaxis system. The MCP-1 P8A initially present at its EC80 (concentration of MCP-1 P8A which allows 80% of cell migration) in the Lower Chamber (with compounds to avoid any compound gradient) diffuses through the pores of the membrane and interacts with the CCR2 receptor of cells present in the upper chamber. The tested compounds can also potentially interact with CCR2 receptor and therefore inhibit the migration of the cells from the Upper Chamber to the Lower Chamber. After a 4-hours incubation time at 37°C, 5% CO2, a quantification of the cells which have migrated is performed using the Cyquant (Invitrogen) and a fluorescent reader as a Fluostar (exc: 485nm; emm: 520 nm). Specific migration is assessed by substracting the basal migration of cells without any stimulation. Chemotaxis data were analyzed using the Genedata Screener® software.

Ki (hCCR2b [1])	Ki (hCCR2b [2])	Structure (SMILES)
< 50 nM	< 50 nM	CC1=C(C(=O)N2CCc3ccc(C(F)(F)F)cc3C2)C2(CCN(C3CCOCC3)CC2)OC1=O [Compound 26, 3-methyl-8-(tetrahydro-2H-pyran-4-yl)-4-{[7-(trifluoromethyl)-3,4-dihydroisoquinolin-2(1H)-yl]carbony}-1-oxa-8-azaspiro[4.5]dec-3-en-2-one]
< 50 nM	< 50 nM	CC1=C(C(=O)N2CCc3ccc(C(F)(F)F)cc3C2)C2(CCN(C(C)C)CC2)OC1=O [Compound 62, 8-isopropyl-3-methyl-4-{[7-(trifluoromethyl)-3,4-dihydroisoquinolin-2 (1H)-yl]carbonyl}-1-oxa-8-azaspiro[4.5]dec-3-en-2-one]
< 50 nM	< 50 nM	CC1=C(C(=O)N2COc3ccc(C(F)(F)F)cc3C2)C2(CCN(C(C)C)CC2)OC1=O [Compound 66, 8-isopropyl-3-methyl-4-{[6-(trifluoromethyl)-2H-1,3-benzoxazin-3(4H)-yl]carbonyl}-1-oxa-8-azaspiro[4.5]dec-3-en-2-one]
< 50 nM	< 50 nM	CCN1CCC2(CC1)OC(=O)C(C)=C2C(=O)N1CCN(c2cccc(C(F)(F)F)c2)CC1 [Compound 74, 8-ethyl-3-methyl-4-({4-[3-(trifluoromethyl)phenyl]piperazin-1-yl}carbonyl)-1-oxa-8-azaspiro[4.5]dec-3-en-2-one]
< 50 nM	< 50 nM	CCN1CCC2(CC1)OC(=O)C(C)=C2C(=O)N1CCc2ccc(C(F)(F)F)cc2C1 [Compound 97, 8-ethyl-3-methyl-4-{[7-(trifluoromethyl)-3,4-dihydroisoquinolin-2(1H)-yl]carbonyl}-1-oxa-8-azaspiro[4.5]dec-3-en-2-one]
